Measured values: patent US12319687B2, “Indole alkaloid compound in noni enzyme and preparation method and application thereof” (HAINAN NORMAL UNIVERSITY, priority 2020, dated 2025)

Assay: Physical and chemical properties: solubility
Assay type: physicochemical
Details: in water, methanol, DMSO
Procedure: The physical and chemical properties, hydrogen spectrum and mass spectrometry detection data of each compound are as follows:
It is calculated by a HR-ESI-MS [m/z 225.1406, calculated value being 225.1465] that a molecular weight of the compound is 202, a molecular formula is C12H14N2O, and a degree of unsaturation is 7.
It is calculated by the HR-ESI-MS [m/z 225.1406, calculated value being 225.1465] that a molecular weight of the compound is 202, a molecular formula is C12H14N2O, and a degree of unsaturation is 7.

solubility | Structure (SMILES)
easily soluble in water, methanol, DMSO | C[C@H]1N[C@H](O)Cc2c1[nH]c1ccccc21 [Compound 1, Noni alkaloid C]
easily soluble in water, methanol, DMSO | C[C@H]1N[C@@H](O)Cc2c1[nH]c1ccccc21 [Compound 2, Noni alkaloid D]
